Test results as given in ChEMBL document CHEMBL1208747, “Derivatives of tetrahydroisoquinoline: synthesis and initial evaluation of novel non-peptide antagonists of the alpha(IIb)beta(3)-integrin” (Bioorg Med Chem Lett, 2010).

Molecular target: not listed separately
Test: Antagonist activity at FITC-tagged […] integrin in human platelet rich plasma

IC50	SMILES
860 nM	O=C(O)CC(NC(=O)CCC(=O)Nc1ccc2c(c1)CNC2)c1ccccc1 (centres undefined)

Molecular target: T1, Integrin alpha-IIb/beta-3 (Homo sapiens, UniProt P05106+P08514)
T1 sequence (P05106 27-788 limits assumed): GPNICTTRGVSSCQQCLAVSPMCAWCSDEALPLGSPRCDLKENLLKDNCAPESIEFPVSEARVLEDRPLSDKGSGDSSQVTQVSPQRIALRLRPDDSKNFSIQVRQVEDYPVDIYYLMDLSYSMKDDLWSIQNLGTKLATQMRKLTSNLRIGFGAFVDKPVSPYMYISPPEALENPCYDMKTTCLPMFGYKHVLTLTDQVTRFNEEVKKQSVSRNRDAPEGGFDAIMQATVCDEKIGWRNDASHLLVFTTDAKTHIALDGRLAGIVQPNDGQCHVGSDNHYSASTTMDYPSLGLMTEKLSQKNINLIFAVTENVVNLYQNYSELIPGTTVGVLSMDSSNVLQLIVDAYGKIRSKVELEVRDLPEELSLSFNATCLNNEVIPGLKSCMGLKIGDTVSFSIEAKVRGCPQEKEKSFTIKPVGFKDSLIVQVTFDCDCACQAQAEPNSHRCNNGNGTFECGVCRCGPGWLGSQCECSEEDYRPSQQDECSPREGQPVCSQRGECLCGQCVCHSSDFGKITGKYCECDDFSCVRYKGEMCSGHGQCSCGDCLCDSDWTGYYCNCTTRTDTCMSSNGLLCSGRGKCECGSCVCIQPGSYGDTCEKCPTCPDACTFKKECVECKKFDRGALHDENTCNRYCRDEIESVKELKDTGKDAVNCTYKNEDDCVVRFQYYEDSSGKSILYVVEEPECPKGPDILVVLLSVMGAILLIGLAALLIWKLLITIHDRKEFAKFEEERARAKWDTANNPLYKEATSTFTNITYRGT
T1 sequence (P08514 32-887 limits assumed): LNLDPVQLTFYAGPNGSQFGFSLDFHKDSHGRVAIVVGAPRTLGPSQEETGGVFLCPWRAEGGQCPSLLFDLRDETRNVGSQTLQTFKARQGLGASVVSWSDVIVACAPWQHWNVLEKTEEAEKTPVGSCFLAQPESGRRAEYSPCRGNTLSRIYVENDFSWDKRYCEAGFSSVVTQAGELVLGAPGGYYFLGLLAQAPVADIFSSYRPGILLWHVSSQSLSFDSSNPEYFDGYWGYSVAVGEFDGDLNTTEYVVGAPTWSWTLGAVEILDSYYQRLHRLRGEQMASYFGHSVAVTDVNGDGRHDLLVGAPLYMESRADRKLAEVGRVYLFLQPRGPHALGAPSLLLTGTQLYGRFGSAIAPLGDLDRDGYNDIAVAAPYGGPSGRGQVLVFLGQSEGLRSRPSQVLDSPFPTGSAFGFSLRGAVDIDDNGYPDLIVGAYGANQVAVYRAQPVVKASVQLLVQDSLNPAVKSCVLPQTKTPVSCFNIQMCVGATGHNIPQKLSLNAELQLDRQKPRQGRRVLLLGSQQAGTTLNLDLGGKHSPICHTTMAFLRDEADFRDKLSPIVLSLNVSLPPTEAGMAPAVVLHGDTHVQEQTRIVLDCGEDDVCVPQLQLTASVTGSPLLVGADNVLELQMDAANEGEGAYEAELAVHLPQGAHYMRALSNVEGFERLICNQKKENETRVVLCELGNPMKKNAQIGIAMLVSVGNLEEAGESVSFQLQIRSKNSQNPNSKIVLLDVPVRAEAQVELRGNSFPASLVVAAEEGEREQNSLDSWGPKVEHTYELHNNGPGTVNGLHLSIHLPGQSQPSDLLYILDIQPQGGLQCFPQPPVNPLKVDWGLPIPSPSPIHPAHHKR
T1 sequence (P08514 891-1039 limits assumed): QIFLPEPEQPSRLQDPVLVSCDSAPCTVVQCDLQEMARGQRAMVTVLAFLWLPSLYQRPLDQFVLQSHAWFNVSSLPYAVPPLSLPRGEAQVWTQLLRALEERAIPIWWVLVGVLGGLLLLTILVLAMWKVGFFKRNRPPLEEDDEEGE
Test: Antagonist activity at FITC-tagged alphaIIbbeta3 integrin in human platelet assessed as inhibition of FITC-fibrinogen binding on washed platelets

IC50	SMILES
0.9 nM	Cc1ccc(C(CC(=O)O)NC(=O)CCC(=O)Nc2ccc3c(c2)CNCC3)cc1 (centres undefined)
3.5 nM	COc1ccc(C(CC(=O)O)NC(=O)CCC(=O)Nc2ccc3c(c2)CNCC3)cc1 (centres undefined)
0.63 nM	COc1ccc(C(CC(=O)O)NC(=O)CCC(=O)Nc2ccc3c(c2)CNCC3)cc1OC (centres undefined)
0.4 nM	O=C(O)CC(NC(=O)CCC(=O)Nc1ccc2c(c1)CNCC2)c1ccc2c(c1)OCO2 (centres undefined)
18 nM	COc1ccc(C(CC(=O)O)NC(=O)CCCC(=O)Nc2ccc3c(c2)CNCC3)cc1 (centres undefined)
5 nM	COc1ccc(C(CC(=O)O)NC(=O)CCCC(=O)Nc2ccc3c(c2)CNCC3)cc1OC (centres undefined)
0.78 nM	O=C(O)CC(NC(=O)CCCC(=O)Nc1ccc2c(c1)CNCC2)c1ccc2c(c1)OCO2 (centres undefined)
2.6 nM	COc1ccc(C(CC(=O)O)NC(=O)CCC(=O)Nc2ccc3c(c2)CNC3)cc1 (centres undefined)
6 nM	CC(C)Oc1ccc(C(CC(=O)O)NC(=O)CCC(=O)Nc2ccc3c(c2)CNC3)cc1 (centres undefined)
9 nM	COc1ccc(C(CC(=O)O)NC(=O)CCC(=O)Nc2ccc3c(c2)CNC3)cc1OC (centres undefined)
0.22 nM	O=C(O)CC(NC(=O)CCC(=O)Nc1ccc2c(c1)CNC2)c1ccc2c(c1)OCO2 (centres undefined)
1.21 nM	O=C(O)CCNC(=O)CCC(=O)Nc1ccc2c(c1)CNCC2
1.01 nM	O=C(O)CC(NC(=O)CCC(=O)Nc1ccc2c(c1)CNCC2)c1ccccc1 (centres undefined)
1 nM	O=C(O)CC(NC(=O)CCC(=O)Nc1ccc2c(c1)CNCC2)c1ccc(F)cc1 (centres undefined)
1100 nM	O=C(O)CC(NC(=O)CCC(=O)Nc1ccc2c(c1)CNCC2)c1cccc(F)c1 (centres undefined)
5 nM	O=C(O)CC(NC(=O)CCC(=O)Nc1ccc2c(c1)CNCC2)c1ccccc1F (centres undefined)
65 nM	O=C(O)CC(NC(=O)CCC(=O)Nc1ccc2c(c1)CNCC2)c1ccc(Cl)cc1 (centres undefined)
0.8 nM	COc1ccc(C(CC(=O)O)NC(=O)c2cccc(C(=O)Nc3ccc4c(c3)CNCC4)c2)cc1 (centres undefined)
1 nM	O=C(O)CC(NC(=O)c1cccc(C(=O)Nc2ccc3c(c2)CNCC3)c1)c1ccccc1 (centres undefined)
0.7 nM	COc1ccc(C(CC(=O)O)NC(=O)c2cccc(C(=O)Nc3ccc4c(c3)CNCC4)c2)cc1OC (centres undefined)

Molecular target: T1, Integrin alpha-IIb/beta-3
Test: Antagonist activity at FITC-tagged […] integrin in human platelet rich plasma
Format: functional, cell-free

IC50	SMILES
96 nM	Cc1ccc(C(CC(=O)O)NC(=O)CCC(=O)Nc2ccc3c(c2)CNCC3)cc1 (centres undefined)
310 nM	COc1ccc(C(CC(=O)O)NC(=O)CCC(=O)Nc2ccc3c(c2)CNCC3)cc1 (centres undefined)
87 nM	CC(C)Oc1ccc(C(CC(=O)O)NC(=O)CCC(=O)Nc2ccc3c(c2)CNCC3)cc1 (centres undefined)
64 nM	COc1ccc(C(CC(=O)O)NC(=O)CCC(=O)Nc2ccc3c(c2)CNCC3)cc1OC (centres undefined)
510 nM	CCOc1ccc(C(CC(=O)O)NC(=O)CCC(=O)Nc2ccc3c(c2)CNCC3)cc1OC (centres undefined)
90 nM	O=C(O)CC(NC(=O)CCC(=O)Nc1ccc2c(c1)CNCC2)c1ccc2c(c1)OCO2 (centres undefined)
5200 nM	O=C(O)CC(NC(=O)CCC(=O)Nc1ccc2c(c1)CNCC2)c1cccc2ccccc12 (centres undefined)
4200 nM	COc1ccc(C(CC(=O)O)NC(=O)CCCC(=O)Nc2ccc3c(c2)CNCC3)cc1 (centres undefined)
127 nM	COc1ccc(C(CC(=O)O)NC(=O)CCCC(=O)Nc2ccc3c(c2)CNCC3)cc1OC (centres undefined)
53 nM	O=C(O)CC(NC(=O)CCCC(=O)Nc1ccc2c(c1)CNCC2)c1ccc2c(c1)OCO2 (centres undefined)
160 nM	COc1ccc(C(CC(=O)O)NC(=O)CCC(=O)Nc2ccc3c(c2)CNC3)cc1 (centres undefined)
105 nM	CC(C)Oc1ccc(C(CC(=O)O)NC(=O)CCC(=O)Nc2ccc3c(c2)CNC3)cc1 (centres undefined)
890 nM	COc1ccc(C(CC(=O)O)NC(=O)CCC(=O)Nc2ccc3c(c2)CNC3)cc1OC (centres undefined)
31 nM	O=C(O)CC(NC(=O)CCC(=O)Nc1ccc2c(c1)CNC2)c1ccc2c(c1)OCO2 (centres undefined)
30 nM	O=C(O)CCNC(=O)CCC(=O)Nc1ccc2c(c1)CNCC2
13 nM	O=C(O)CC(NC(=O)CCC(=O)Nc1ccc2c(c1)CNCC2)c1ccccc1 (centres undefined)
8.9 nM	O=C(O)CC(NC(=O)CCC(=O)Nc1ccc2c(c1)CNCC2)c1ccc(F)cc1 (centres undefined)
10000 nM	O=C(O)CC(NC(=O)CCC(=O)Nc1ccc2c(c1)CNCC2)c1cccc(F)c1 (centres undefined)
570 nM	O=C(O)CC(NC(=O)CCC(=O)Nc1ccc2c(c1)CNCC2)c1ccccc1F (centres undefined)
2000 nM	O=C(O)CC(NC(=O)CCC(=O)Nc1ccc2c(c1)CNCC2)c1ccc(Cl)cc1 (centres undefined)
17 nM	COc1ccc(C(CC(=O)O)NC(=O)c2cccc(C(=O)Nc3ccc4c(c3)CNCC4)c2)cc1 (centres undefined)
25 nM	O=C(O)CC(NC(=O)c1cccc(C(=O)Nc2ccc3c(c2)CNCC3)c1)c1ccccc1 (centres undefined)
11.6 nM	COc1ccc(C(CC(=O)O)NC(=O)c2cccc(C(=O)Nc3ccc4c(c3)CNCC4)c2)cc1OC (centres undefined)
